This note sets out measurements from US9956293B2, “Targeted therapeutics” (Madrigal Pharmaceuticals, Inc., priority 2014, dated 2018).

A value given as a limit tells only on which side of the number the result lay.

Data set [1] is described as follows: Stability in human plasma (Example 5). It counts as in vitro ADME. As to the method:
(§1) This example illustrates a method for assessing the stability of SDC-TRAP of the invention in human and mouse plasma.
(§2) SDC-TRAP-0022 and SDC-TRAP-0028 were incubated in human and mouse plasma for 2 h at 37° C. and assayed for integrity at 0.25, 0.5, 1 and 2 h. The values reported below are the remaining of the parent compound at the end of the 2 h incubation period.

Data set [2] in a line: Stability in mouse plasma (Example 5). The format is in vitro ADME. As to the method: as §1, §2
Data set [3] relates to HER2. As to the kind of experiment: HER2 degradation in BT-474 cells (Example 3, Western blot / in-cell imaging). The format is cell-based, human. Conditions: Homo sapiens. (In western blotting, separated proteins are transferred to a membrane and probed.)
Method: BT-474 cells are plated in the interior 60 wells of a 96 well black clear bottom plate (20,000 cells/well) in DMEM medium, with DMEM media in the surrounding 36 wells, and incubated at 37° C. with 5% CO2 overnight. On the second day, concentration response curve source plates are produced (10 point, 3-fold dilution of compounds in DMSO) followed by a 1:30 dilution in an intermediate dilution plate containing DMEM. Compound is transferred from the intermediate plate to the cell plate at a dilution of 1:10.
Cells are then fixed in 4% phosphate-buffered paraformaldehyde for 30 minutes at room temperature and then permeabilized by washing five times with 0.1% Triton X-100 in PBS for 5 minutes at room temperature on a shaker. […] Cells are washed 5 times with 0.1% Tween-20 in PBS for 5 minutes at room temperature on a shaker and imaged on a LI-COR Odyssey imaging station. The raw data is normalized to DRAQ5 and the HER2 EC50 is calculated using XLfit™.
Data set [4] deals with HER2. As to the kind of experiment: HER2 degradation assay with BT-474 cell line (Example 12, FACS). The format is cell-based. Conditions: Homo sapiens, BT-474; SDC-TRAPs of the 43rd table.
Data set [5] has as its system MCF-7 breast cancer cells. In words: Mouse xenograft efficacy in an MCF-7 breast cancer model. It counts as in vivo. Conditions: 150 or 100 mg/kg/1×wk; FIG. 8. As to the method:
Mouse Xenograft Efficacy Data in an MCF-7 Breast Cancer Model
MCF-7 breast cancer cells were purchased from ATCC. […] Fetal bovine serum was then added to the medium. The final concentration of fetal bovine serum was 10%. Cells were cultured at 37° C. and 5% CO2.
Mice that were not put on treatment were euthanized. Animals were sourced through CRL (Wilmington, Mass.).

For data set [6] the following is noted: mouse, in vivo.
Method: (§3) Tissue Distribution Extraction Procedure for SDC-TRAP Tumor Samples
(§4) A 150 ng/mL solution of SDC-TRAP-0002 in methanol was prepared using an internal spiking solution (500 μg/mL SDC-TRAP-0002 in DMSO). Using the 10 mM stock solutions of the SDC-TRAP molecule and its Hsp90i binding moiety and effector moiety in DMSO, spiking solutions were prepared at 0.025, 0.05, 0.1, 0.5, 1, 5, 10, 50, 100, 250, and 500 μM in DMSO. 5 μL of each spiking solution was added to a 96-deep well plate.
(§5) Quality control standards were prepared from 5 μL of 0.1, 1, and 10 μM calibration standard spiking solution added in triplicate into 96-deep well plate and adding 50 μL of matrix (plasma or homogenized tumor).
(§6) To prepare test samples, test plasma was diluted as needed using blank plasma. Tumor samples were pulverized in liquid nitrogen, weighed, and homogenized in PBS at 5× volume to sample weight. 50 μL of unknown plasma or homogenized tumor sample was mixed with 5 μL of DMSO. The samples were extracted by precipitating calibration standards, QC standards, and unknown samples with 200 μL of internal standard solution. The samples were mixed by vortex at room temperature for approximately 1.5 minutes, then centrifuge at 2-8° C. 150 μL of supernatant was collected and 25 μL of water added. Samples were mixed and analyzed by LC-MS/MS.
(§7) Samples of plasma, heart and tumor were excised from a euthanized mouse, homogenized in PBS at 5 times tissue weight and diluted in 5 μL DMSO/50 μL sample. Prior to analysis, 55 μL samples and calibration standards were precipitated in 200 μL methanol in 96-well plates. Samples were mixed on a vortex mixer for 1.5 minutes at 1500 rpm at room temperature, then centrifuged at 4400 rpm for 10 minutes at 8° C. 150 μL of each supernatant was transferred to a well of a new 96-well plate, and 25 μL of water was added and mixed with the sample. […] For the analysis of samples from female SCID mice, a gradient of solvent A (water/0.1% formic acid) and B (acetonitrile/0.1% formic acid) was used as in Table A below.
The next data set in a line: in vivo. Particulars: mouse.
Data set [7] can be described thus: Mouse plasma stability (Examples 16-18). The format is in vitro ADME.
Method: Plasma Stability Protocol for SDC-TRAP Compounds
This solution was used to precipitate all plasma samples in the study. 200 μL was pipetted into a 96 deepwell plate over dry ice. 10 μL of 1 mM stock in DMSO was added to a 1.5 mL microfuge tube, then 990 μL of plasma. Samples were mixed by vortex, then 50 μL of each sample was added in triplicate to a 96-well plate containing internal standard solution. This was designated the 0 hour time point sample. 250 μL of the remaining plasma sample was added to each of four 96 deepwell plates—one per time point. Samples were incubated at 37° C. with gentle shaking for 0.25, 0.5, and 1 hour. After each time point, one plate of each sample was removed from the shaker and placed on wet ice for approximately 2 minutes. 50 μL plasma aliquots (in triplicate) were added to the deepwell plate containing internal standard solution. After the last time point was extracted, the 96 deepwell plate was vortexed, then centrifuged at 2-8° C. 150 μL of supernatant was collected and 25 μL of water was added. Samples were mixed and analyzed by LC-MS/MS.
The stability of seven SDC-TRAP types in mouse plasma was measured as follows. […] Each sample was mixed and divided into 250 μL aliquots, each representing time points 0, 15 minutes, 30 minutes or 1 hour. […]
Data set [8] is described as follows: Stability in cell culture media (Example 18). The format is in vitro ADME. On the procedure:
SDC-TRAP Stability in Mouse Plasma and Cell Culture Media
Mouse plasma samples were prepared according to Example 16.

Data set [9] has as its system human breast cancer cell line BT-474. In words: Cytotoxicity assay with cancer cell lines, BT-474 (Example 13). The format is cell-based. Conditions: BT-474, 72 h, read-out: Cytotoxicity (IC50, nM) BT-474.
Method: (§8) Cytotoxicity Assay with Cancer Cell Lines
(§9) Cytotoxicity of SDC-TRAP molecules was determined in three cancer cell lines. […] 80 μL of CellTiter-Glo was added to each well, followed by room temperature incubation in the dark for 15 minutes. Cell was determined by luminescence. IC50 was calculated using XLfit™ software.
Data set [10] has as its system human urinary bladder cancer cell line RT-112. As to the kind of experiment: Cytotoxicity assay with cancer cell lines, RT-112 (Example 13). The format is cell-based. Particulars: RT-112, 72 h, read-out: Cytotoxicity (IC50, nM) RT-112.
Method: as §8, §9
Data set [11] relates to human urinary bladder cancer cell line SW780. In words: Cytotoxicity assay with cancer cell lines, SW780 (Example 13). It counts as cell-based. Conditions: SW780, 72 h, read-out: Cytotoxicity (IC50, nM) SW-780.
Method: as §8, §9
A short description of data set [12]: Artificial membrane permeability assay (PAMPA) (Example 36). The format is in vitro ADME. (In general: In PAMPA a lipid-coated filter parts donor from acceptor wells.)
Method: In order to test the ability SDC-TRAP molecules of the invention to enter cells, an artificial membrane permeability assay (“PAMPA”) was used. […] LC/MS was used in conjunction with PAMPA assays to determine the ability of the SDC-TRAP molecules of the invention to permeate cells.
Pre-coated PAMPA plates were warmed to room temperature for at least 30 minutes prior to adding assay components.
Stock solutions were prepared with the SDC-TRAP molecules to be tested. In order to make a working solution, either 50 μL of 100 μM Stock in DMSO+950 μL of PBS or 50 μL of 200 μM stock was added to 96 deep well plate, resulting in a 5 μM final concentration or a 10 μM final concentration, respectively. 300 μL of the working solution containing each compound to be tested was added to the appropriate well of a donor PAMPA plate. 200 μL of PBS was added into the corresponding wells of an acceptor PAMPA plates.
The acceptor plate was lowered onto the donor plate and allowed to incubate for five hours. After five hours, a 50 μL aliquot was removed from each well of each plate and added into a new 96 deep-well plate.
100 μL of methanol containing an internal standard was added to each aliquot and analyzed by LC/MS. The internal standard was 150 ng/ml SDC-TRAP-0002.
In order to calculate the permeability for each SDC-TRAP molecule and the control molecules, the following formula was used:
Data set [13] can be described thus: Tissue distribution of ganetespib in female CD-1 nu/nu mice bearing RERF human NSCLC xenografts. Particulars: 24 hr after 50 mg/kg IV. The format is in vivo, mouse. The text has this: Tissue distribution of ganetespib in female CD-1 nu/nu mice bearing RERF human NSCLC xenografts
To confirm the distribution of ganetespib in blood, livers, kidneys, brains, hearts, lungs and tumors after IV administration of ganetespib to female CD-1 nu/nu mice bearing RERF human NSCLC xenografts, and to examine metabolic profiles of ganetespib in plasma, red blood cells, and above tissues.
Animals: female CD-1 nu/nu mice bearing RERF human NSCLC xenografts (N=3/group)
Formulation: 10% DMSO, 18% Cremophor RH40, 3.6% dextrose solution (DRD)
Bleeding time points: 5 min, 6, 24 hr
Collected tissues: blood (plasma and red blood cells (RBC)), liver, kidneys, brain, heart, lung, tumor
Protein precipitation: 50 μL of 10 times diluted plasma or RBC+150 μL ACN (10 mM NH4OAc), vortexed and centrifuged at 10000 rpm for 8 min; 150 μL supernatant+150 μL water (10 mM NH4OAc)
Protein precipitation: 100 μL homogenized tissue (1:3 tissue: PBS buffer)+100 μL ACN (10 mM NH4OAc), vortexed and centrifuged at 10000 rpm for 8 min Bioanalysis

Method for in vivo: as §3, §4, §5, §6, §7

For the molecule `CCc1c2c(nc3ccc(OC(=O)N(C)CCn4ccc5cc(-n6c(O)nnc6-c6cc(C(C)C)c(O)cc6O)ccc54)cc13)-c1cc3c(c(=O)n1C2)COC(=O)C3(O)CC` (stereo not shown) [SDC-TRAP-0022, 4,11-diethyl-4-hydroxy-3,14-dioxo-3,4,12,14-tetrahydro-1H-pyrano[3′,4′:6,7]indolizino[1,2-b]quinolin-9-yl (2-(5-(3-(2,4-dihydroxy-5-isopropylphenyl)-5-hydroxy-4H-1,2,4-triazol-4-yl)-1H-indol-1-yl)ethyl)(methyl)carbamate], the “% Remaining 2 h (37° C.) HU” value in data set [1] (human plasma, 1 μM) stood at 29%; in data set [1] (human plasma, 10 μM), 30%. Further, the “% Remaining 2 h (37° C.) MO” value in data set [2] (mouse plasma, 1 μM) was 32%; in data set [2] (mouse plasma, 10 μM) it was 31%.

Take `CCc1c2c(nc3ccc(OCC(=O)N(C)CCOCCn4ccc5cc(-n6c(O)nnc6-c6cc(C(C)C)c(O)cc6O)ccc54)cc13)-c1cc3c(c(=O)n1C2)COC(=O)C3(O)CC` (stereo not shown) [SDC-TRAP-0028, 2-((4,11-diethyl-4-hydroxy-3,14-dioxo-3,4,12,14-tetrahydro-1H-pyrano[3′,4′:6,7]indolizino[12-b]quinolin-9-yl)oxy)-N-(2-(2-(5-(3-(2,4-dihydroxy-5-isopropylphenyl)-5-hydroxy-4H-1,2,4-triazol-4-yl)-1H-indol-1-yl)ethoxy)ethyl)-N-methylacetamide]: the IC50 with HER2 [3] (BT-474 cells, read-out: HER2 (IC50)) was over 5000 nM; with HER2 [4], over 5000 nM. In addition, the “% Remaining 2 h (37° C.) HU” value in [1] (human, plasma, 2 h, 1 μM) was found to be 51%; in [1] (human, plasma, 2 h, 10 μM) it was 65%. Further, the “% Remaining 2 h (37° C.) MO” value turned out to be 53% in data set [2] (mouse, plasma, 2 h, 1 μM) and 47% in data set [2] (mouse, plasma, 2 h, 10 μM).

Regarding `CCc1c2c(nc3ccc(OC(=O)N4CCC(CCn5ccc6cc(-n7c(O)nnc7-c7cc(C(C)C)c(O)cc7O)ccc65)CC4)cc13)-c1cc3c(c(=O)n1C2)COC(=O)[C@]3(O)CC` [SDC-TRAP-0063, 4,11-diethyl-4-hydroxy-3,14-dioxo-3,4,12,14-tetrahydro-1H-pyrano[3′,4′:6,7]indolizino[1,2-b]quinolin-9-yl 4-(2-(5-(3-(2,4-dihydroxy-5-isopropylphenyl)-5-hydroxy-4H-1,2,4-triazol-4-yl)-1H-indol-1-yl)ethyl)piperidine-1-carboxylate], the “tumor growth suppression (tumor volume)” value in data set [5] is “greater tumor growth suppression than effector moiety irinotecan alone”. For the same molecule, the “tumor targeting (tissue distribution, in words)” value in data set [6] was “selectively targets and accumulates in tumor cells”. Further, in “in vivo” (Plasma Conc.), the concentration at 6 h is 1690 nM and the concentration at 24 h amounted to 6.75 nM. For the same molecule, in the data set “in vivo” (Tumor/Plasma Ratio), the partition ratio (Kp) at 6 h is 0.958, the Kp at 24 h is 30.1 and the concentration ratio (Kp) at […] was 0.0122.

With `CCc1c2c(cc3ccc(O)cc13)-c1cc3c(c(=O)n1C2)COC(=O)[C@]3(O)CC` [SN-38], the “Mouse (10 μM) % Remaining 1 h (37° C.)*” value in [7] was 64%. Further, the “Media (5 μM) % Remaining 1 h (37° C.)*” value in data set [8] (1 h) is given as 82%. Besides, in data set [8] (19 h), the “Media (5 μM) % Remaining 19 h (37° C.)” value worked out at 52%. For the same molecule, the values for the IC50 in data set [9], in data set [10] and in data set [11] were over 10000 nM, under 10 nM and 38 nM, respectively. The “Mass Retention” value came to 38.2% in [12] (incubation 5 h, the 55th table) and 46.6% in [12] (same protocol, the 56th table). For the same molecule, the Papp at 5 h is 0.643 ×10⁻⁶ cm/s in data set [12] (incubation 5 h, the 55th table) and 1.87 ×10⁻⁶ cm/s in [12] (same protocol, the 56th table). Also, in the data set “in vivo” (Tumor/Plasma Ratio), the concentration ratio (Kp) at 1 h was 0.07. The partition ratio (Kp) at […] in “in vivo” (Tumor/Plasma Ratio) stood at 0.01.

`CC(C)c1cc(-c2n[nH]c(=O)n2-c2ccc3c(ccn3C)c2)c(O)cc1O` [ganetespib, reference compound]: the “Concentration of ganetespib in plasma” value in [13] is recorded as “<LLOQ”. Further, the IC50 with HER2 [3] (BT-474, read-out: IC50 of in vitro HER2 assays) was about 30 nM.

By IC50 is commonly meant the concentration that gives 50% inhibition. The term Kp denotes the ratio of the level in a tissue or fluid to that in plasma or blood. Usually Papp stands for the rate of passage across a membrane or cell layer, normalised by area and donor concentration. Read a low Papp as slow passage.
